From patent US8603539B2, “Compositions for drug delivery” (Dr. Reddy's Laboratories Limited, priority 2005, dated 2013)

Tested on: New Zealand white rabbits
Assay: Comparative dermal irritation study (PDII)
Conditions: rabbit skin, patch 24 hours; erythema and edema scores at 25, 48 and 72 hours
Description: Six male New Zealand white rabbits of age between 10 to 15 months and weight in the range of 2 to 3 Kg were used in the study. […] The hair on the backs of the rabbits was clipped and approximately 0.5 g of Test or Reference or Control 2 was placed on a gauze patch and was applied to the skin site. Separate gauze patches containing Test, Reference and Control 2 were applied on the back. The patches were moistened with 0.5 ml physiological saline after application. 0.5 ml of Control 1 was injected into a fourth gauze patch after applying the patch on the skin. The patches were removed after 24 hours.
The test and control items were categorized based on the Primary Dermal Irritation Index (PDII). The PDII was determined as the ratio of total irritation score (TIS) and total number of observations. The TIS was calculated by adding the subtotal values for erythema and edema. The subtotal values for erythema and edema were separately calculated by adding the irritation scores at 25, 48 and 72 hours post-application. The following scoring criteria were used as described in the literature (S. C. Gad et al., Acute Toxicology Testing: Perspectives and Horizons, The Telford Press, Inc., Caldwell, N.J., 1988):

CCCCCCCCCCCCOS(=O)(=O)[O-].[Na+] [Control 1, sodium lauryl sulphate]
PDII (Primary Dermal Irritation Index): 0.44
